Data reported in patent US20230085307A1, “PYRIDAZINONE COMPOUND AND HERBICIDE” (NISSAN CHEMICAL CORPORATION, priority 2019, published 2023).

How the values were obtained:
redroot pigweed = test: Test Example 4: herbicidal effect by soil treatment (Table 19, symbol N); format: in vivo, redroot pigweed (Amaranthus retroflexus)
Procedure, shortened: (§1)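 Herbicidal effect was rated 3 weeks after treatment, using the scoring criteria of an earlier test. The compound, formulated as an emulsion and diluted in water to a set herbicide amount, had been sprayed uniformly on soil over freshly sown seeds. Growth took place in a greenhouse at 25° C. to 30° C.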

windgrass = test: Test Example 5: herbicidal effect by foliage application, plastic box (Table 20, symbol L); format: in vivo, windgrass (Apera spica-venti); conditions: foliage application; for effect on windgrass (L): 3 weeks after application
Procedure, shortened: (§2)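 Foliar spray test: emulsion formulation diluted in water to a set application rate, sprayed onto 14-day-old plants raised in diluvial soil at 25° C to 30° C under glass. Both herbicidal effect and crop effect rated visually three weeks later.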

wild oat [1] = test: Test Example 4: herbicidal effect by soil treatment (Table 19, symbol I); format: in vivo, wild oat (Avena fatua)
Procedure, shortened: as §1

southern crabgrass = test: Test Example 5: herbicidal effect by foliage application, plastic box (Table 20, symbol F); format: in vivo, southern crabgrass (Digitaria ciliaris); conditions: foliage application; for effect on southern crabgrass (F): 3 weeks after application
Procedure, shortened: as §2

green foxtail [2] = test: Test Example 4: herbicidal effect by soil treatment (Table 19, symbol G); format: in vivo, green foxtail (Setaria viridis)
Procedure, shortened: as §1

chickweed [3] = test: Test Example 4: herbicidal effect by soil treatment (Table 19, symbol P); format: in vivo, common chickweed (Stellaria media)
Procedure, shortened: as §1

Japanese bulrush [4] = test: Test Example 2: herbicidal activity, application during weed generation under submerged conditions (Table 17, symbol B); format: in vivo, Japanese bulrush (Schoenoplectus juncoides); conditions: application during weed generation, submerged conditions
Procedure, shortened: (§3)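 Herbicide emulsion, diluted with water to the chosen amount, is applied onto 4 cm floodwater over alluvial soil where the weeds were co-sown and raised at 25–30° C. Application timing: 1–2 leaves. Assessment: three weeks afterwards.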

Japanese bulrush [5] = test: Test Example 1: herbicidal activity, application before weed generation under submerged conditions (Table 16, symbol B); format: in vivo, Japanese bulrush (Schoenoplectus juncoides)
Procedure, shortened: (§4)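 Alluvial soil was flooded to 4 cm depth, weed seeds were sown mixed and 2.5-leaf rice seedlings were transplanted. On sowing day, the compound's emulsion, diluted in water to a set dose, was applied to the water surface. Plants grew at 25–30 °C and were scored 0–5 after three weeks.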

oval-leafed pondweed [6] = test: Test Example 2: herbicidal activity, application during weed generation under submerged conditions (Table 17, symbol C); format: in vivo, oval-leafed pondweed (Monochoria vaginalis); conditions: application during weed generation, submerged conditions
Procedure, shortened: as §3

persian speedwell = test: Test Example 5: herbicidal effect by foliage application, plastic box (Table 20, symbol R); format: in vivo, Persian speedwell (Veronica persica); conditions: foliage application; for effect on persian speedwell (R): 3 weeks after application
Procedure, shortened: as §2

oval-leafed pondweed [7] = test: Test Example 1: herbicidal activity, application before weed generation under submerged conditions (Table 16, symbol C); format: in vivo, oval-leafed pondweed (Monochoria vaginalis)
Procedure, shortened: as §4

wild oat [8] = test: Test Example 5: herbicidal effect by foliage application, plastic box (Table 20, symbol I); format: in vivo, wild oat (Avena fatua); conditions: foliage application; for effect on wild oat (I): 3 weeks after application
Procedure, shortened: as §2

barnyard grass [9] = test: Test Example 4: herbicidal effect by soil treatment (Table 19, symbol H); format: in vivo, barnyard grass (Echinochloa crus-galli)
Procedure, shortened: as §1

barnyard grass [10] = test: Test Example 5: herbicidal effect by foliage application, plastic box (Table 20, symbol H); format: in vivo, barnyard grass (Echinochloa crus-galli); conditions: foliage application; for effect on barnyard grass (H): 3 weeks after application
Procedure, shortened: as §2

green foxtail [11] = test: Test Example 5: herbicidal effect by foliage application, plastic box (Table 20, symbol G); format: in vivo, green foxtail (Setaria viridis); conditions: foliage application; for effect on green foxtail (G): 3 weeks after application
Procedure, shortened: as §2

chickweed [12] = test: Test Example 5: herbicidal effect by foliage application, plastic box (Table 20, symbol P); format: in vivo, common chickweed (Stellaria media); conditions: foliage application, 320 g/ha, three weeks after application
Procedure, shortened: as §2

[13] = amount of applied herbicide 320 g/ha
[14] = 320 g/ha, three weeks after application

Row | Compound | N: redroot pigweed, herbicidal effect rating (redroot pigweed; AAH 320 g/ha) | effect on windgrass (L) (windgrass; 320 g/ha) | I: wild oat, herbicidal effect rating (wild oat [1]; AAH 320 g/ha) | effect on southern crabgrass (F) (southern crabgrass; 320 g/ha) | G: green foxtail, herbicidal effect rating (green foxtail [2]; AAH 320 g/ha) | P: chickweed, herbicidal effect rating (chickweed [3]; AAH 320 g/ha) | herbicidal effect rating, B: Japanese bulrush (Japanese bulrush [4]; AAH 320 g/ha) | Herbicidal effect on B: Japanese bulrush (grade 0-5) (Japanese bulrush [5]; 320 g/ha applied herbicide) | herbicidal effect rating, C: oval-leafed pondweed (oval-leafed pondweed [6]; AAH 320 g/ha) | effect on persian speedwell (R) (persian speedwell; 320 g/ha) | Herbicidal effect on C: oval-leafed pondweed (grade 0-5) (oval-leafed pondweed [7]; 320 g/ha applied herbicide) | effect on wild oat (I) (wild oat [8]; 320 g/ha) | H: barnyard grass, herbicidal effect rating (barnyard grass [9]; AAH 320 g/ha) | effect on barnyard grass (H) (barnyard grass [10]; 320 g/ha) | effect on green foxtail (G) (green foxtail [11]; 320 g/ha) | further results
1 | C=CCC(C)Oc1ccc(-c2sc3ccccc3c2-c2c(O)c(C)nn(C)c2=O)cc1 (racemic) [1-213] | 0 (Herbicidal rate of 5% or less (almost no effect)) | 5 (Herbicidal rate of 90% or more (almost completely withered)) | 0 (Herbicidal rate of 5% or less (almost no effect)) | 5 (Herbicidal rate of 90% or more (almost completely withered)) | 0 (Herbicidal rate of 5% or less (almost no effect)) | 3 (Herbicidal rate of 40% or more and less than 70%) | 3 (Herbicidal rate of 40% or more and less than 70%) | 5 (Herbicidal rate of 90% or more (almost completely withered)) | 4 (Herbicidal rate of 70% or more and less than 90%) | 5 (Herbicidal rate of 90% or more (almost completely withered)) | 5 (Herbicidal rate of 90% or more (almost completely withered)) | 3 (Herbicidal rate of 40% or more and less than 70%) | 0 (Herbicidal rate of 5% or less (almost no effect)) | 5 (Herbicidal rate of 90% or more (almost completely withered)) | 5 (Herbicidal rate of 90% or more (almost completely withered)) | 
2 | C#CC(C)Oc1ccc(-c2sc3ccccc3c2-c2c(O)c(C)nn(C)c2=O)cc1 (racemic) [1-217] | 4 (Herbicidal rate of 70% or more and less than 90%) | 5 (Herbicidal rate of 90% or more (almost completely withered)) | 0 (Herbicidal rate of 5% or less (almost no effect)) | 4 (Herbicidal rate of 70% or more and less than 90%) | 3 (Herbicidal rate of 40% or more and less than 70%) | 5 (Herbicidal rate of 90% or more (almost completely withered)) | 3 (Herbicidal rate of 40% or more and less than 70%) | 5 (Herbicidal rate of 90% or more (almost completely withered)) | 3 (Herbicidal rate of 40% or more and less than 70%) | 5 (Herbicidal rate of 90% or more (almost completely withered)) | 3 (Herbicidal rate of 40% or more and less than 70%) | 3 (Herbicidal rate of 40% or more and less than 70%) |  | 5 (Herbicidal rate of 90% or more (almost completely withered)) | 4 (Herbicidal rate of 70% or more and less than 90%) | 
3 | C#CC(C)Oc1ccc(-c2sc3ccccc3c2-c2c(OCOCCOC)c(C)nn(C)c2=O)cc1 (racemic) [1-218] |  |  |  |  |  |  |  |  |  |  |  |  |  |  |  | N: redroot pigweed, herbicidal effect rating (redroot pigweed; AAH 187 g/ha): 2 (Herbicidal rate of 20% or more and less than 40%); effect on windgrass (L) (windgrass; 187 g/ha): 0 (Herbicidal rate of 5% or less (almost no effect)); I: wild oat, herbicidal effect rating (wild oat [1]; AAH 187 g/ha): 0 (Herbicidal rate of 5% or less (almost no effect)); effect on southern crabgrass (F) (southern crabgrass; 187 g/ha): 0 (Herbicidal rate of 5% or less (almost no effect)); G: green foxtail, herbicidal effect rating (green foxtail [2]; AAH 187 g/ha): 3 (Herbicidal rate of 40% or more and less than 70%); P: chickweed, herbicidal effect rating (chickweed [3]; AAH 187 g/ha): 1 (Herbicidal rate of 5% or more and less than 20%); herbicidal effect rating, B: Japanese bulrush (Japanese bulrush [4]; AAH 100 g/ha): 3 (Herbicidal rate of 40% or more and less than 70%); Herbicidal effect on B: Japanese bulrush (grade 0-5) (Japanese bulrush [5]; 100 g/ha applied herbicide): 3 (Herbicidal rate of 40% or more and less than 70%); herbicidal effect rating, C: oval-leafed pondweed (oval-leafed pondweed [6]; AAH 100 g/ha): 4 (Herbicidal rate of 70% or more and less than 90%); effect on persian speedwell (R) (persian speedwell; 187 g/ha): 5 (Herbicidal rate of 90% or more (almost completely withered)); Herbicidal effect on C: oval-leafed pondweed (grade 0-5) (oval-leafed pondweed [7]; 100 g/ha applied herbicide): 0 (Herbicidal rate of 5% or less (almost no effect)); effect on wild oat (I) (wild oat [8]; 187 g/ha): 0 (Herbicidal rate of 5% or less (almost no effect)); H: barnyard grass, herbicidal effect rating (barnyard grass [9]; AAH 187 g/ha): 2 (Herbicidal rate of 20% or more and less than 40%); effect on barnyard grass (H) (barnyard grass [10]; 187 g/ha): 3 (Herbicidal rate of 40% or more and less than 70%); effect on green foxtail (G) (green foxtail [11]; 187 g/ha): 5 (Herbicidal rate of 90% or more (almost completely withered))
4 | COCC(C)Oc1ccc(-c2sc3ccccc3c2-c2c(O)c(C)nn(C)c2=O)cc1 (racemic) [1-228] | 5 (Herbicidal rate of 90% or more (almost completely withered)) | 5 (Herbicidal rate of 90% or more (almost completely withered)) | 0 (Herbicidal rate of 5% or less (almost no effect)) | 5 (Herbicidal rate of 90% or more (almost completely withered)) | 5 (Herbicidal rate of 90% or more (almost completely withered)) | 4 (Herbicidal rate of 70% or more and less than 90%) | 3 (Herbicidal rate of 40% or more and less than 70%) | 5 (Herbicidal rate of 90% or more (almost completely withered)) | 3 (Herbicidal rate of 40% or more and less than 70%) | 5 (Herbicidal rate of 90% or more (almost completely withered)) | 4 (Herbicidal rate of 70% or more and less than 90%) | 0 (Herbicidal rate of 5% or less (almost no effect)) | 4 (Herbicidal rate of 70% or more and less than 90%) | 5 (Herbicidal rate of 90% or more (almost completely withered)) | 5 (Herbicidal rate of 90% or more (almost completely withered)) | 
5 | CCCCCOc1ccc(-c2sc3ccccc3c2-c2c(O)c(C)nn(C)c2=O)cc1 [1-026] |  |  |  |  |  |  | 3 (Herbicidal rate of 40% or more and less than 70%) | 2 (Herbicidal rate of 20% or more and less than 40%) |  |  | 1 (Herbicidal rate of 5% or more and less than 20%) |  |  |  |  | herbicidal effect rating, N: redroot pigweed (redroot pigweed; [13]): 5 (Herbicidal rate of 90% or more (almost completely withered)); herbicidal effect grade, L: windgrass (windgrass; [14]): 4 (Herbicidal rate of 70% or more and less than 90%); herbicidal effect rating, I: wild oat (wild oat [1]; [13]): 0 (Herbicidal rate of 5% or less (almost no effect)); herbicidal effect grade, F: southern crabgrass (southern crabgrass; [14]): 4 (Herbicidal rate of 70% or more and less than 90%); herbicidal effect grade, P: chickweed (chickweed [12]): 5 (Herbicidal rate of 90% or more (almost completely withered)); herbicidal effect rating, G: green foxtail (green foxtail [2]; [13]): 0 (Herbicidal rate of 5% or less (almost no effect)); herbicidal effect rating, P: chickweed (chickweed [3]; [13]): 2 (Herbicidal rate of 20% or more and less than 40%); herbicidal effect grade, R: persian speedwell (persian speedwell; [14]): 5 (Herbicidal rate of 90% or more (almost completely withered)); herbicidal effect grade, I: wild oat (wild oat [8]; [14]): 2 (Herbicidal rate of 20% or more and less than 40%); herbicidal effect rating, H: barnyard grass (barnyard grass [9]; [13]): 0 (Herbicidal rate of 5% or less (almost no effect)); herbicidal effect grade, H: barnyard grass (barnyard grass [10]; [14]): 3 (Herbicidal rate of 40% or more and less than 70%); herbicidal effect grade, G: green foxtail (green foxtail [11]; [14]): 5 (Herbicidal rate of 90% or more (almost completely withered))
